Test results as given in patent publication US6251944A, “Para-substituted phenylene derivatives” (G. D. Searle & Company, priority 1999, dated 2001).
Structures can show the parent of a compound that is named as a salt.

Tests used:
[1] = molecular target: T1, Human vitronectin receptor(αvβ3) (Homo sapiens, UniProt P05106+P06756); test: Vitronectin adhesion assay (solid phase receptor assay, αvβ3); conditions: inhibition of 50% of maximum binding of biotinylated vitronectin; highest concentration tested 1.0×10^-4 M; read-out: AvB3 IC50
T1 construct: purified from human placenta; from tissue; host or cells: human placenta
T1 sequence (P06756 31-889 limits assumed): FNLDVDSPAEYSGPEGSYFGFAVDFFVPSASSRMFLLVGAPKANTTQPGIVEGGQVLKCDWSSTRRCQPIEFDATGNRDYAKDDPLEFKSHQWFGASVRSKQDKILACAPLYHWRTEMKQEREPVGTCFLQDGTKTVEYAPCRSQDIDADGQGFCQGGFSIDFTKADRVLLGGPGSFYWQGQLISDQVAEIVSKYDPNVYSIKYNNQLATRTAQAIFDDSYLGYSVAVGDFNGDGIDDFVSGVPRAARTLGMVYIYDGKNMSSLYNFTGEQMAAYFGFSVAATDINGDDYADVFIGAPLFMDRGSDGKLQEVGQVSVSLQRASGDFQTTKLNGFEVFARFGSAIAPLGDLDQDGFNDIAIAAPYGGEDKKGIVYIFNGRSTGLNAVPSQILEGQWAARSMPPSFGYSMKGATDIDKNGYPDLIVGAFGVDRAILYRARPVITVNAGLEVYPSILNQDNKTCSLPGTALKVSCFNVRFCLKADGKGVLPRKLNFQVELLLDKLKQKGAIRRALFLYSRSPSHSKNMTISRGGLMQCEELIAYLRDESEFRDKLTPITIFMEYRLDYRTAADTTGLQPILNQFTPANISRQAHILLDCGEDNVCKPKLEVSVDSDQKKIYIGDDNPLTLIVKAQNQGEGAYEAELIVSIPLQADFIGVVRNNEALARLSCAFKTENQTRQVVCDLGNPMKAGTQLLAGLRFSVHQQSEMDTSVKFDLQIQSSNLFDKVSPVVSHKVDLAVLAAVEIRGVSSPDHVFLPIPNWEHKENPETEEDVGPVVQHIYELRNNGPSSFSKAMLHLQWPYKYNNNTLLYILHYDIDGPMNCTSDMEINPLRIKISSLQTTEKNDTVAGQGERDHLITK
T1 sequence (P06756 891-1048 limits assumed): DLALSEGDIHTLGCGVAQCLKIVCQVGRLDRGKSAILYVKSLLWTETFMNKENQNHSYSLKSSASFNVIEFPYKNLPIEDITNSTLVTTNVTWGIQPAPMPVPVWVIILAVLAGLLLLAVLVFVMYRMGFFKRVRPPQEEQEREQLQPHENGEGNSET
T1 sequence (P05106 27-788): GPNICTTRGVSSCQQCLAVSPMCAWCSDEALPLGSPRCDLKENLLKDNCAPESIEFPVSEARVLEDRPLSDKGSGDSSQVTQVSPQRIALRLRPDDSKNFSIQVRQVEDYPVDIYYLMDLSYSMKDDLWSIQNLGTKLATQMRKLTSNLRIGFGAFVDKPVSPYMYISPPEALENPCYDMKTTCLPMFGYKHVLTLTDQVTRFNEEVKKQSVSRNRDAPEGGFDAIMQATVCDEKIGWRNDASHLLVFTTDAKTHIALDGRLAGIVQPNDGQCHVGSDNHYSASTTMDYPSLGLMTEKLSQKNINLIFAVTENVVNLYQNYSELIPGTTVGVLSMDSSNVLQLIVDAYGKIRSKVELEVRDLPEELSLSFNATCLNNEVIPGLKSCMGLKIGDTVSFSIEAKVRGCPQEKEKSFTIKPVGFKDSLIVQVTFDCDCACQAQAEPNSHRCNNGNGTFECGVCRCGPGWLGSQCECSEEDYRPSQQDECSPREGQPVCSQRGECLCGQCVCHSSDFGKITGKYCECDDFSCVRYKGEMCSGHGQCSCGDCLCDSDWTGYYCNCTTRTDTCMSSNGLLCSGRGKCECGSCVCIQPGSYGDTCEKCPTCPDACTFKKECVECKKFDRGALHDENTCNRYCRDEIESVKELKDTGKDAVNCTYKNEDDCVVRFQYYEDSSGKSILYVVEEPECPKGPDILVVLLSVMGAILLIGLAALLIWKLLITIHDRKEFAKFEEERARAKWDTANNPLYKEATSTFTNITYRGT
Procedure: The activity of the compounds of the present invention was tested in the following assays. […] Assay buffer, OPD substrate tablets, and RIA grade BSA were obtained from Sigma (St. Louis, Mo.). Anti-biotin antibody was obtained from Calbiochem (La Jolla, Calif.). Linbro microtiter plates were obtained from Flow Labs (McLean, Va.). ADP reagent was obtained from Sigma (St. Louis, Mo.). […] The purified human vitronectin receptor (αvβ3) was diluted from stock solutions to 1.0 μg/mL in Tris-buffered saline containing 1.0 mM Ca^++, Mg^++, and Mn^++, pH 7.4 (TBS^+++). The diluted receptor was immediately transferred to Linbro microtiter plates at 100 μL/well (100 ng receptor/well). The plates were sealed and incubated overnight at 4° C. to allow the receptor to bind to the wells. All remaining steps were at room temperature. The assay plates were emptied and 200 μL of 1% RIA grade BSA in TBS^+++ (TBS^+++ /BSA) were added to block exposed plastic surfaces. Following a 2 hour incubation, the assay plates were washed with TBS^+++ using a 96 well plate washer. […] The competition occurred for two hours after which all wells were washed with a plate washer as before. […] After 30 minutes, the plates were washed and incubated with OPD/H2 O2 substrate in 100 mM/L Citrate buffer, pH 5.0. […] The data were analyzed using a macro written for use with the EXCEL™ spreadsheet program. The mean, standard deviation, and % CV were determined for duplicate concentrations. The mean A450 values were normalized to the mean of four maximum-binding controls (no competitor added)(B-MAX). The normalized values were subjected to a four parameter curve fit algorithm [Rodbard et al., Int. […] Ser.

[2] = molecular target: T2, Human fibrinogen receptor (αIIbβ3) (Homo sapiens, UniProt P05106+P08514); test: Purified IIb/IIIa receptor assay (solid phase receptor assay); conditions: inhibition of 50% of maximum binding of biotinylated vitronectin; highest concentration tested 1.0×10^-4 M
T2 construct: purified from outdated platelets; from tissue; host or cells: outdated platelets (human)
T2 sequence (P08514 32-887 limits assumed): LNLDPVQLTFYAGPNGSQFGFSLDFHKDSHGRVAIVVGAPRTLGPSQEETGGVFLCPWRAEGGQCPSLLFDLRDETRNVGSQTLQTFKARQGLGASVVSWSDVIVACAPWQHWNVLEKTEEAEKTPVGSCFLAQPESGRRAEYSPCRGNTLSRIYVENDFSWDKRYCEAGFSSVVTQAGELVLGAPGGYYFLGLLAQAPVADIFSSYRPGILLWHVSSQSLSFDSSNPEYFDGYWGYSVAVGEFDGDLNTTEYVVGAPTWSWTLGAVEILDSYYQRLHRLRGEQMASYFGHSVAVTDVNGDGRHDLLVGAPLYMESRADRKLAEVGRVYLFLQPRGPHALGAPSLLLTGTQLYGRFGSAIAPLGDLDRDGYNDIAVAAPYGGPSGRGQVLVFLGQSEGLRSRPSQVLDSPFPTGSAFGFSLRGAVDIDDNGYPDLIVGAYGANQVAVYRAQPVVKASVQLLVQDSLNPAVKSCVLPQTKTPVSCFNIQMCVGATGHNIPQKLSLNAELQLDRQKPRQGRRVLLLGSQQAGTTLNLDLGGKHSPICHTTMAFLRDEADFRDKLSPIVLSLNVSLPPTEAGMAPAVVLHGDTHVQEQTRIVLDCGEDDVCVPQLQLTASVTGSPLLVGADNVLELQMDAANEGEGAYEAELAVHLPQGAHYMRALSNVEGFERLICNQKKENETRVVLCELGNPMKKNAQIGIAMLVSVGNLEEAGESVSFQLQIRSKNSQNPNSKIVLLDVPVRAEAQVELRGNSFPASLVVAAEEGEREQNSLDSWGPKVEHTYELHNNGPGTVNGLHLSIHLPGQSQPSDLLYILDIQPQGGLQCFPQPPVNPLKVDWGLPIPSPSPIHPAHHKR
T2 sequence (P08514 891-1039 limits assumed): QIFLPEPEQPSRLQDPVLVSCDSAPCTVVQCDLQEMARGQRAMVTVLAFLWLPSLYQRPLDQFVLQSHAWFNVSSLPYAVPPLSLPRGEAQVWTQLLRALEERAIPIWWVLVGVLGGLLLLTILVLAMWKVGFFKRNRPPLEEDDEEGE
T2 sequence (P05106 27-788): as the sequence (P05106 27-788) above
Procedure: The activity of the compounds of the present invention was tested in the following assays.
Human fibrinogen receptor (αIIbβ3) was purified from outdated platelets. […] Biotinylated human vitronectin was prepared by coupling NHS-biotin from Pierce Chemical Company (Rockford, Ill.) to purified vitronectin as previously described. […] Anti-biotin antibody was obtained from Calbiochem (La Jolla, Calif.). Linbro microtiter plates were obtained from Flow Labs (McLean, Va.). ADP reagent was obtained from Sigma (St. Louis, Mo.).
Solid Phase Receptor Assays
The purified human fibrinogen receptor (αIIbβ3) was diluted from stock solutions to 1.0 μg/mL in Tris-buffered saline containing 1.0 mM Ca^++, Mg^++, and Mn^++, pH 7.4 (TBS^+++). The diluted receptor was immediately transferred to Linbro microtiter plates at 100 μL/well (100 ng receptor/well). The plates were sealed and incubated overnight at 4° C. to allow the receptor to bind to the wells. All remaining steps were at room temperature. The assay plates were emptied and 200 μL of 1% RIA grade BSA in TBS^+++ (TBS^+++ /BSA) were added to block exposed plastic surfaces. Following a 2 hour incubation, the assay plates were washed with TBS^+++ using a 96 well plate washer. Logarithmic serial dilution of the test compound and controls were made starting at a stock concentration of 2 mM and using 2 nM biotinylated vitronectin in TBS^+++ /BSA as the diluent. This premixing of labeled ligand with test (or control) ligand, and subsequent transfer of 50 μL aliquots to the assay plate was carried out with a CETUS Propette robot; the final concentration of the labeled ligand was 1 nM and the highest concentration of test compound was 1.0×10^-4 M. The competition occurred for two hours after which all wells were washed with a plate washer as before. Affinity purified horseradish peroxidase labeled goat anti-biotin antibody was diluted 1:3000 in TBS^+++ /BSA and 125 μL were added to each well. After 30 minutes, the plates were washed and incubated with […]/H2 O2 substrate in 100 mM/L citrate buffer, pH 5.0. The plate was read with a microtiter plate reader at a wavelength of 450 nm and when the maximum-binding control wells reached an absorbance of about 1.0, the final A450 were recorded for analysis. The data were analyzed using a macro written for use with the EXCEL™ spreadsheet program. The mean, standard deviation, and % CV were determined for duplicate concentrations. The mean A450 values were normalized to the mean of four maximum-binding controls (no competitor added) (B-MAX). The normalized values were subjected to a four parameter curve fit algorithm, [Robard et al., Int.

Row | SMILES | IC50 [1] | IC50 [2]
1 | N=C(N)Nc1cccc(C(=O)Nc2ccc(C(CC(=O)O)C(=O)O)cc2)c1 (stereo not shown) [Example 69, [4-[[[3-[(aminoiminomethyl)amino]-phenyl]carbonyl]amino]phenyl]butanedioicAcid, trifluoroacetate Salt] | 0.094 µM | 0.037 µM
2 | N=C(N)Nc1cccc(C(=O)Nc2ccc(C(CC(=O)O)C(=O)NCC(=O)O)cc2)c1 (stereo not drawn) [Example 73, 4-[[[3-[(aminoiminomethyl)amino]phenyl]-carbonyl]amino]-beta-[[(carboxymethyl)amino]carbonyl]-benzenepropanoic Acid, trifluoroacetate Salt] | 0.141 µM | 0.04 µM
3 | N=C(N)Nc1cccc(C(=O)Nc2ccc(CCC(=O)O)cc2O)c1 [Example 75, 4-[[[3-[(aminoiminomethyl)amino]phenyl]-carbonyl]amino]-3-hydroxybenzenepropanoic Acid, trifluoroacetate Salt] | 0.0145 µM | 0.33 µM
4 | N=C(N)Nc1cccc(C(=O)Nc2ccc(OCC(=O)O)cc2)c1 [Example 81, [4-[[[3-[(aminoiminomethyl)amino]phenyl]-carbonyl]amino]phenoxy]acetic Acid, trifluoroacetate Salt] | 0.0191 µM | 0.129 µM
5 | N=C(N)Nc1cccc(C(=O)Nc2ccc(S(=O)(=O)CC(=O)O)cc2)c1 [Example 83, [[4-[[[3-[(aminoiminomethyl)amino]phenyl]carbonyl]amino]phenyl]sulfonyl]acetic Acid] | 1.9 µM | 0.474 µM
6 | CCOC(=O)C(Oc1ccc(NC(=O)c2cccc(NC(=N)N)c2)cc1)c1ccccc1 (stereo not drawn) [Example 86C, ethyl α-[4-[[[3-[(aminoiminomethyl)amino]phenyl]carbonyl]amino]phenoxy]benzeneacetate, trifluoroacetate Salt] | 56.8 µM | > 100 µM
7 | CC(C)OC(=O)NC(Cc1ccc(NC(=O)c2ccc(Cl)c(NC(=N)N)c2)cc1)C(=O)O (stereo not shown) [Example 87, 4[[[3-[(aminoiminomethyl)amino]-4-chlorophenyl]carbonyl]amino]-N-[(1-methylethoxy)carbonyl]phenylalanine] | 0.00044 µM | 0.0853 µM
8 | CCOC(=O)CSc1ccc(NC(=O)c2cccc(NC(=N)N)c2)cc1 [Example 90, ethyl[[4-[[(3-[(aminoiminomethyl)amino]phenyl]carbonyl]amino]phenyl]thio]acetic Acid, trifluoroacetate] | 23.7 µM | 34.5 µM
9 | N=C(N)Nc1cccc(C(=O)Nc2ccc(CCC(=O)O)c(CCC(=O)O)c2)c1 [Example 100, 4-[[[3-[(aminoiminomethyl)amino]phenyl]carbonyl]amino]benzene-1,2-dipropanoic Acid, trifluoroacetate Salt] | 0.006 µM | 0.044 µM
10 | CC(C)(C)CC(=O)NC(Cc1ccc(NC(=O)c2cccc(NC(=N)N)c2)cc1)C(=O)O (stereo not shown) [Example 109, 4-[[[3-[(aminoiminomethyl)amino]phenyl]carbonyl]amino]-N-(3,3-dimethyl-1-oxobutyl)phenylalanine, trifluoroacetate Salt] | 0.005 µM | 0.111 µM
11 | CC(C)(C)CC(=O)NC(Cc1ccc(NC(=O)c2cc(NC(=N)N)cc(C(F)(F)F)c2)cc1)C(=O)O (stereo not shown) [Example 110, 4-[[[3-[(aminoiminomethyl)amino]-5-(trifluoromethyl)phenyl]carbonyl]amino]-N-(3,3-dimethyl-1-oxobutyl)phenylalanine, trifluoroacetate Salt] | 0.004 µM | 0.326 µM
12 | COc1cc(NC(=O)c2cccc(NC(=N)N)c2)ccc1CC(NC(=O)OC(C)C)C(=O)O (stereo not shown) [Example 113, 4-[[[3-[(aminoiminomethyl)amino]phenyl]carbonyl]amino]-2-methoxy-N-[(1-methylethoxy)carbonyl]phenylalanine, trifluoroacetate salt, monohydrate] | 0.001 µM | 0.253 µM
13 | COc1cc(NC(=O)c2cccc(NC(=N)N)c2)ccc1OCC(=O)O [Example 118, [4-[[[3-[(aminoiminomethyl)amino]phenyl]carbonyl]amino]-2-methoxyphenoxy]acetic Acid, trifluoroacetate Salt] | 0.003 µM | 0.054 µM
14 | N=C(N)Nc1cccc(C(=O)Nc2ccc(CC(NS(=O)(=O)/C=C/c3ccccc3)C(=O)O)cc2)c1 (stereo not shown) [Example 123, 4-[[[3-[(aminoiminomethyl)amino]phenyl]carbonyl]amino]-N-[(2-phenylethenyl)sulfonyl]phenylalanine, trifluoroacetate Salt] | 0.0005 µM | 0.0015 µM
15 | CC(C)(C)NC(=O)NC(Cc1ccc(NC(=O)c2cccc(NC(=N)N)c2)cc1)C(=O)O (stereo not shown) [Example 124, 4-[[[3-[(aminoiminomethyl)amino]phenyl]carbonyl)amino]-N-[[(1,1-dimethylethyl)amino]carbonyl]phenylalanine, trifluoroacetate Salt] | 0.003 µM | 0.285 µM
16 | CC(C)OC(=O)NC(Cc1ccc(NC(=O)c2cccc(C(=O)NC(=N)N)c2)cc1)C(=O)O (stereo not shown) [Example 128, 4-[[[3-[[(aminoiminomethyl)amino]carbonyl]phenyl]carbonyl]amino]-N-[(1-methylethoxy)carbonyl]phenylalanine, trifluoroacetate Salt] | 0.216 µM | 0.02 µM
17 | CCC(Cc1ccc(NC(=O)c2cccc(NC(=N)N)c2)cc1)C(=O)O (stereo not drawn) [Example 129, 4-[[[3-[(aminoiminomethyl)amino]phenyl]carbonyl]amino]-α-ethylbenzenepropanoic Acid, trifluoroacetate Salt] | 0.265 µM | 5.26 µM
